Source: paper PMC9558907, “Synthesis and pharmacological evaluation of newly detected synthetic cannabinoid receptor agonists AB-4CN-BUTICA, MMB-4CN-BUTINACA, MDMB-4F-BUTICA, MDMB-4F-BUTINACA and their analogs” (Frontiers in Psychiatry, 2022)

Assays:
human CB1 [1] = target: T1, human CB1 (Homo sapiens, UniProt P21554); test: fluorescence-based membrane potential assay (GIRK activation) in AtT20 cells; format: cell-based; set-up: expressed in transfected cells; host or cells: mouse AtT20 FlpIn cells
T1 sequence (P21554 whole entry): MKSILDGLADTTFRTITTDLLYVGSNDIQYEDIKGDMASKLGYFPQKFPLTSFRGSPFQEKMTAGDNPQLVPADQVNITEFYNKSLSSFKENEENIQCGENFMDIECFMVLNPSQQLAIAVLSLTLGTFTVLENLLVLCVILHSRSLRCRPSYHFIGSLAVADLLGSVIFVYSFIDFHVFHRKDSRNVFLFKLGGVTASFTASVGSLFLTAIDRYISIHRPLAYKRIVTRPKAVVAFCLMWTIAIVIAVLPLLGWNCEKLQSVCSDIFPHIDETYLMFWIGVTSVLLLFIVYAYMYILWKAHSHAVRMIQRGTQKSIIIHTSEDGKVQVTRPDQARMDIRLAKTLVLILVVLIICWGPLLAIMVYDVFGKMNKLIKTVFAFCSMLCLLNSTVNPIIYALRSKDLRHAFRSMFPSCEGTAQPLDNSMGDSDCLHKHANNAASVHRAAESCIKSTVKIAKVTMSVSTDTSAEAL

human CB2 [2] = target: T2, human CB2 (Homo sapiens, UniProt P34972); test: competitive radioligand binding assay, displacement of [3H]CP55,940, HEK cell membranes; set-up: expressed in transfected cells; host or cells: HEK293 cells, P2 membrane preparation; conditions: hCB2 pKi ±SEM, [3H]CP55,940 1 nM, mean ± SEM of 3 to 6 independent experiments
T2 sequence (P34972 whole entry): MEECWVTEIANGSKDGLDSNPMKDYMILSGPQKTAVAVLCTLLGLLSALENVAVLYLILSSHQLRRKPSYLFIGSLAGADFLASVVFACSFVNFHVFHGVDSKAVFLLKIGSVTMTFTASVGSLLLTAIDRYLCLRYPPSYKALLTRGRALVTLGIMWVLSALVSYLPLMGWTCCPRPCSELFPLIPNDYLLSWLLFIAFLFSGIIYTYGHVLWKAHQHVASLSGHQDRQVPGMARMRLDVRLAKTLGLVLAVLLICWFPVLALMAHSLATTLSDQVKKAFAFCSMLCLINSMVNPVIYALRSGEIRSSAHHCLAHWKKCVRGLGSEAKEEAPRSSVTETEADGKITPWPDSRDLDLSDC

human CB1 [3] = target: T1, human CB1; test: as above; set-up: expressed in transfected cells; host or cells: HEK293 cells, P2 membrane preparation; conditions: hCB1 Ki, [3H]CP55,940 1 nM, value in brackets after pKi
human CB2 [4] = target: T2, human CB2; test: fluorescence-based membrane potential assay (GIRK activation) in AtT20 cells; format: cell-based; set-up: expressed in transfected cells; host or cells: mouse AtT20 FlpIn cells
CB2 = tested on: CB2; set-up: method as in PMID 26134475; conditions: cited from earlier work
CB1 = tested on: CB1; set-up: method as in PMID 26134475; conditions: cited from earlier work

Structure (SMILES)	hCB1 Emax ±SEM (human CB1 [1]; AtT20-hCB1, normalised to 1 μM CP55,940)	EC50 (human CB1 [1]; hCB1 EC50, AtT20-hCB1, value in brackets after pEC50) [nM]	melting point [°C]	Ki (human CB2 [2]) [nM]	Ki (human CB1 [3]) [nM]	hCB2 Emax ±SEM (human CB2 [4]; AtT20-hCB2, normalised to 1 μM CP55,940)	EC50 (human CB2 [4]; hCB2 EC50, AtT20-hCB2, value in brackets after pEC50) [nM]	effect at 30 μM at CB2 (CB2) [%]	Emax at CB1 (CB1) [%]	pEC50 at CB1 (CB1)
COC(=O)[C@H](Cc1ccccc1)NC(=O)c1cn(CCCCF)c2ncccc12 [Compound 40, methyl (1-(4-fluorobutyl)-1H-pyrrolo[2,3-b]pyridine-3-carbonyl)-L-phenylalaninate]	122 ± 10 % CP55,940	637	109 to 112	28.8	880	110 ± 6 % CP55,940	26.9			
CCCCCc1cc(O)c2c(c1)OC(C)(C)[C@@H]1CCC(C)=C[C@@H]21 [THC, Δ^9-tetrahydrocannabinol]								32	58	6.76 ± 0.09
